# Patent publication US20230011869A1 (Hoffmann-La Roche Inc., priority 2018, published 2023)
# Where a name gives a salt, the structure may show the parent alone.
# Test system: Acinetobacter baumannii ATCC17978
# Assay: Antimicrobial susceptibility testing: 90% growth inhibitory concentration (IC90) determination, Iso-Sensitest broth
# Format: cell-based
# Conditions: 90% growth inhibitory concentration, Acinetobacter baumannii ATCC17978, Iso-Sensitest broth, OD 600 nm over 16 h; read-out: ATCC17978 IC90
# Summary of the method: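 A. baumannii ATCC17978 grown in Iso-Sensitest broth across 10 compound concentrations at 35±2 °C.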
row,SMILES,IC90 [nM]
1,"Cc1cc(Nc2nccn3c(-c4ccc(OCC#N)c(F)c4F)cnc23)ccc1C(=O)N1CCC(CCN)CC1 [Example 304, 2-[4-[8-[4-[4-(2-aminoethyl)piperidine-1-carbonyl]-3-methylanilino]imidazo[1,2-a]pyrazin-3-yl]-2,3-difluorophenoxy]acetonitrile]",110
2,"COc1ccc(-c2cnc3c(Nc4ccc(C(=O)N5CCC(N6CCCC(CO)C6)CC5)c(C)c4)nccn23)cc1F (centres unmarked) [Example 390, [4-[[3-(3-fluoro-4-methoxyphenyl)imidazo[1,2-a]pyrazin-8-yl]amino]-2-methylphenyl]-[4-[3-(hydroxymethyl)piperidin-1-1-yl)piperidin-1-yl]methanone]",320
3,"Cc1cc(Nc2nccn3c(-c4ccc(OCC#N)c(F)c4F)cnc23)ccc1C(=O)N1CCN(C(=O)[C@@H]2C[C@](C)(O)CN2)CC1 [Example 230, 2-[2,3-difluoro-4-[8-[4-[4-[(2S,4S)-4-hydroxy-4-methyl-pyrrolidine-2-carbonyl]piperazine-1-carbonyl]-3-methyl-anilino]imidazo[1,2-a]pyrazin-3-yl]phenoxy] acetonitrile formate]",63
4,"CCc1cc(Nc2nccn3c(-c4ccc(OCC#N)c(F)c4F)cnc23)ccc1C(=O)N1CCN(CCN(C)C)CC1 [Example 30, 2-(4-(8-((4-(4-(2-(dimethylamino)ethyl)piperazine-1-carbonyl)-3-ethylphenyl)amino)imidazo[1,2-a]pyrazin-3-yl)-2,3-difluorophenoxy)acetonitrile]",130
5,"Cc1cc(Nc2nccn3c(-c4ccc(OCC#N)c(F)c4Cl)cnc23)ccc1C(=O)N1CCC(C(=O)N2CCNC[C@H]2CO)CC1 [Example 208, 2-[3-chloro-2-fluoro-4-[8-[4-[4-[(2S)-2-(hydroxymethyl)piperazine-1-carbonyl]piperidine-1-carbonyl]-3-methyl-anilino]imidazo[1,2-a]pyrazin-3-yl]phenoxy] acetonitrile formate]",160
6,"COc1ccc(-c2cnc3c(Nc4ccc(C(=O)N5CCN(C(=O)C6(O)CCNCC6)CC5)c(C)c4)nccn23)c(Cl)c1F [Example 215, [4-[[3-(2-chloro-3-fluoro-4-methoxy-phenyl)imidazo[1,2-a]pyrazin-8-yl]amino]-2-methyl-phenyl]-[4-(4-hydroxypiperidine-4-carbonyl)piperazin-1-yl]methanone formate]",150
7,"COc1ccc(-c2cnc3c(Nc4ccc(C(=O)N5CCC(CN)CC5)c(C)c4)nccn23)c(Cl)c1Cl [Example 113, [4-(aminomethyl)-1-piperidyl]-[4-[[3-(2,3-dichloro-4-methoxy-phenyl)imidazo[1,2-a]pyrazin-8-yl]amino]-2-methyl-phenyl]methanone formate]",280
8,"Cc1cc(Nc2nccn3c(-c4ccc(OCc5ccccc5)c(F)c4F)cnc23)ccc1C(=O)N1CCC(CN)CC1 [Example 126, [4-(aminomethyl)-1-piperidyl]-[4-[[3-(4-benzyloxy-2,3-difluoro-phenyl)imidazo[1,2-a]pyrazin-8-yl]amino]-2-methyl-phenyl]methanone formate]",3600
9,"COc1cc(F)c(-c2cnc3c(Nc4ccc(C(=O)N5CCC(CN)CC5)c(C)c4)nccn23)cc1F [Example 106, (4-(aminomethyl)piperidin-1-yl)(4-((3-(2,5-difluoro-4-methoxyphenyl)imidazo[1,2-a]pyrazin-8-yl)amino)-2-methylphenyl)methanone]",250
10,"COc1ccc(-c2cnc3c(Nc4ccc(C(=O)N5CCN(S(=O)(=O)N(C)C)CC5)c(C)c4)nccn23)cc1F [Example 408, 4-[4-[[3-(3-fluoro-4-methoxyphenyl)imidazo[1,2-a]pyrazin-8-yl]amino]-2-methylbenzoyl]-N,N-dimethylpiperazine-1-sulfonamide]",550

# Same assay, conditions: Acinetobacter baumannii, ATCC17978, 16 h, read-out: ATCC17978 IC90, 90% growth inhibitory concentration, Acinetobacter baumannii ATCC17978, Iso-Sensitest broth, OD 600 nm over 16 h
row,SMILES,IC90 [nM]
1,"Cc1cc(Nc2nccn3c(-c4ccc(OC(F)F)cc4)cnc23)ccc1C(=O)N1CCC(C(N)=O)(N2CCN(C)CC2)CC1 [Example 375, 1-[4-[[3-[4-(difluoromethoxy)phenyl]imi-dazo[1,2-a]pyrazin-8-yl]amino]-2-methylbenzoyl]-4-(4-methylpiperazin-1-yl)piperidine-4-carboxamide]",2000
2,"Cc1cc(Nc2nccn3c(-c4ccc(OC(F)F)cc4)cnc23)ccc1C(=O)N1CCN(C(=O)[C@@H](N)CC(N)=O)CC1 [Example 528, (3S)-3-amino-4-[4-[4-[[3-[4-(difluoromethoxy)phenyl]imi-dazo[1,2-a]pyrazin-8-yl]amino]-2-methylbenzoyl]piperazin-1-yl]-4-oxobutanamide; hydrochloride]",610
3,"COc1ccc(-c2cnc3c(Nc4ccc(C(=O)N5CCN(C6CCNC6)CC5)c(C)c4)nccn23)cc1F (centres unmarked) [Example 348, [4-[[3-(3-fluoro-4-methoxyphenyl)imidazo[1,2-a]pyrazin-8-yl]amino]-2-methylphenyl]-(4-pyrrolidin-3-ylpiperazin-1-yl)methanone; hydrochloride]",660
4,"COc1ccc(-c2cnc3c(Nc4ccc(C(=O)N5CCC(CN)CC5)c(C)c4)nccn23)c(Cl)c1F [Example 104, [4-(aminomethyl)-1-piperidyl]-[4-[[3-(2-chloro-3-fluoro-4-methoxy-phenyl)imidazo[1,2-a]pyrazin-8-yl]amino]-2-methyl-phenyl]methanone hydrochloride]",180
5,"Cc1cc(Nc2nccn3c(-c4ccc(OC(F)F)cc4)cnc23)ccc1C(=O)N1CCN(C(=O)C2(N)CCNCC2)CC1 [Example 509, [4-(4-aminopiperidine-4-carbonyl)piperazin-1-yl]-[4-[[3-[4-(difluoromethoxy)phenyl]imi-dazo[1,2-a]pyrazin-8-yl]amino]-2-methylphenyl]methanone; hy-drochloride]",540
6,"Cc1cc(Nc2nccn3c(-c4ccc(OC(F)F)cc4)cnc23)ccc1C(=O)N1CCN(C(=O)[C@@H](N)CCCNC(N)=O)CC1 [Example 262, [(4S)-4-amino-5-[4-[4-[[3-[4-(difluoromethoxy)phenyl]imi-dazo[1,2-a]pyrazin-8-yl]amino]-2-methylbenzoyl]piperazin-1-yl]-5-oxopentyl]urea]",1000
7,"Cc1cc(Nc2nccn3c(-c4ccc(OC(F)F)cc4)cnc23)ccc1C(=O)N1CCCC(N)C1 (centres unmarked) [Example 368, (3-aminopiperidin-1-yl)-[4-[[3-[4-(difluoromethoxy)phenyl]imi-dazo[1,2-a]pyrazin-8-yl]amino]-2-methylphenyl]methanone; hy-drochloride]",810
8,"Cc1cc(Nc2nccn3c(-c4ccc(OC(F)F)cc4)cnc23)ccc1C(=O)N1CCC2(CCCNC2)CC1 [Example 376, 2,9-diazaspiro[5.5]undecan-9-yl-[4-[[3-[4-(difluromethoxy)phenyl]imi-dazo[1,2-a]pyrazin-8-yl]amino]-2-methylphenyl]methanone; hy-drochloride]",2000
9,"Cc1cc(Nc2nccn3c(-c4ccc(OC(F)F)cc4)cnc23)ccc1C(=O)N1CCC(C(=O)NC[C@@H](O)CN)CC1 [Example 554, (S)-N-(3-amino-2-hydroxypropyl)-1-(4-((3-(4-(difluoromethoxy)phenyl)imidazo [1,2-a]pyrazin-8-yl)amino)-2-methylbenzoyl)piperidine-4-carboxamide formate]",344
10,"CNCCNC(=O)C1CCN(C(=O)c2ccc(Nc3nccn4c(-c5ccc(OC)c(F)c5F)cnc34)cc2C)CC1 [Example 321, 1-[4-[[3-(2,3-difluoro-4-methoxyphenyl)imidazo[1,2-a]pyrazin-8-yl]amino]-2-methylbenzoyl]-N-[2-(methylamino)ethyl]piperidine-4-carboxamide; hydrochloride]",280
11,"COc1ccc(-c2cnc3c(Nc4ccc(C(=O)N5CCN(C(=O)N6CCNCC6)CC5)c(C)c4)nccn23)c(F)c1F [Example 480, [4-[[3-(2,3-difluoro-4-methoxyphenyl)imidazo[1,2-a]pyrazin-8-yl]amino]-2-methylphenyl]-[4-(piperazine-1-carbonyl)piperazin-1-yl]methanone; formic acid]",140
12,"COc1ccc(-c2cnc3c(Nc4ccc(C(=O)N5CCN(C(=O)[C@@H]6C[C@@H](OC(=O)[C@@H](N)CCCNC(=N)N)CN6)CC5)c(C)c4)nccn23)c(F)c1F [Example 550, [(3R,5S)-5-[4-[4-[[3-(2,3-difluoro-4-methoxy-phenyl)imidazo[1,2-a]pyrazin-8-yl]amino]-2-methyl-benzoyl]piperazine-1-carbonyl]pyrrolidin-3-yl] 2-amino-5-guanidino-pentanoate formate]",153
13,"Cc1cc(Nc2nccn3c(-c4ccc(OC(F)F)cc4)cnc23)ccc1C(=O)N1CCN(C(=O)[C@H]2CCNC2)CC1 [Example 495, [4-[[3-[4-(difluoromethoxy)phenyl]imi-dazo[1,2-a]pyrazin-8-yl]amino]-2-methylphenyl]-[4-[(3S)-pyrrolidine-3-carbonyl]piperazin-1-yl]methanone; hydrochloride]",320
14,"Cc1cc(Nc2nccn3c(-c4ccc(OC(F)F)cc4)cnc23)ccc1C(=O)N1CCN(C(=O)N2CCN[C@@H](C(=O)O)C2)CC1 [Example 445, (2R)-4-[4-[4-[[3-[4-(difluoromethoxy)phenyl]imi-dazo[1,2-a]pyrazin-8-yl]amino]-2-methylbenzoyl]piperazine-1-carbonyl]piperazine-2-carboxylic acid; hydrochloride]",1900
15,"Cc1cc(Nc2nccn3c(-c4ccc(OC(F)F)cc4)cnc23)ccc1C(=O)N1CCN(C(=O)C2(F)CCNCC2)CC1 [Example 324, [4-[[3-[4-(difluoromethoxy)phenyl]imi-dazo[1,2-a]pyrazin-8-yl]amino]-2-methylphenyl]-[4-(4-fluoropiperidine-4-carbonyl)piperazin-1-yl]methanone]",330
16,"Cc1cc(Nc2nccn3c(-c4ccc(OC(F)F)cc4)cnc23)ccc1C(=O)N1CCN(C(=O)[C@H](N)CCC(=O)O)CC1 [Example 275, (4R)-4-amino-5-[4-[4-[[3-[4-(difluoromethoxy)phenyl]imi-dazo[1,2-a]pyrazin-8-yl]amino]-2-methylbenzoyl]piperazin-1-yl]-5-oxopentanoic acid; hydrochloride]",3100
